# According to patent US20100063065A1 (Inpharmatica Limited, priority 2005, published 2010):
# Counter-ions that a name gives are not always drawn.
# Target: T1, PPARδ (Homo sapiens, UniProt Q03181)
# T1 construct: fused to amino acids 147-441 of PPARδ downstream of CMV promoter; expressed in transfected cells; host or cells: HEK293 cells, transiently transfected with pFACMV-PPARδ using Fugene
# T1 sequence (Q03181 147-441): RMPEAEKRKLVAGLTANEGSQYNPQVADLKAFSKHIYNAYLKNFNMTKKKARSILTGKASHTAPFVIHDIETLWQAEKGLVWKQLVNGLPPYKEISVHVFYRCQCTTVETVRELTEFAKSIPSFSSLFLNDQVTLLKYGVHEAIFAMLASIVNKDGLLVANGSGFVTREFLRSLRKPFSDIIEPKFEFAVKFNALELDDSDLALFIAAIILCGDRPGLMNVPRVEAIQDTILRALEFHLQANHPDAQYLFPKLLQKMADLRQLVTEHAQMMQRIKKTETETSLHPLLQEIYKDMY
# Assay: Transactivation assay (PPARδ GAL4 assay) in transiently transfected HEK293 cells
# Format: cell-based
# Settings: luciferase reporter, Table 1
# Procedure: Compounds were screened for their functional potency in transiently transfected HEK293 cells for their ability to activate PPAR subtypes. Cells were cultured in DMEM (Invitrogen) supplemented with 10% foetal calf serum, glutamine, penicillin and streptomycin and plated at 10 000 cells/well of a 96-well solid white plate and incubated at 37° C./5% CO2 for 24 hours. Media was removed and the cells washed with PBS. Cells were then transiently transfected using Fugene (Roche) with 50 ng pFACMV-PPARδ (plasmid encoding amino acids 1-147 of the GAL4 DNA binding domain, fused to amino acids 147-441 of PPARδ downstream of CMV promoter) and 250 ng pFR-Luc (reporter plasmid containing 5×GAL4 response elements upstream of a luciferase gene), using a ratio of 3:1 Fugene:DNA. 100 μl of this transfection mixture in DMEM (without foetal calf serum) was added to each well, and the incubation continued for a further 24 hours. The cells are then again washed with PBS prior to the addition of 100 μl reduced serum medium (OptiMEM; Invitrogen). Compounds were added (10 μl in 2% DMSO in OptiMEM) to achieve final concentrations between 0-30 μM. The cells were then returned to the incubator for a further 24 hours. 100 μl of luciferase reagent (Bright Glo, Promega) was added directly to each well, and the luminescence determined using a suitable luminometer.
# To measure the selectivity of compounds, their ability to transactivate GAL4 fusions of PPARα LBD and PPARγ LBD was determined. The activity of compounds was expressed as a percentage relative to control compounds: PPARγ rosiglitazone (BRL 49653), PPARδ GW501516 (11) or PPARα KCL1999000269 (12). EC50 values were calculated by fitting of the data to a sigmoidal dose response curve.
row,EC50 [µM],Compound
1,1 to 30,"COc1ccc(C(=O)c2cc(C)sc2NC(=O)CSCC(=O)O)cc1 [Example 61, {[3-(4-Methoxy-benzoyl)-5-methyl-thiophen-2-ylcarbamoyl]-methylsulfanyl}-acetic acid]"
2,1 to 30,"COc1ccc(C(=O)c2cc(C(C)C)sc2NC(=O)CSCC(=O)O)cc1 [Example 62, {[5-Isopropyl-3-(4-methoxy-benzoyl)-thiophen-2-ylcarbamoyl]-methylsulfanyl}-acetic acid]"
3,1 to 30,"CCCc1cc(C(=O)c2ccc(OC)cc2)c(NC(=O)CSCC(=O)O)s1 [Example 63, {[3-(4-Methoxybenzoyl)-5-propyl-thiophen-2-ylcarbamoyl]-methylsulfanyl}-acetic acid]"
4,1 to 30,"O=C(O)CSCC(=O)Nc1sc(C2CC2)cc1C(=O)c1ccc(F)cc1 [Example 64, {[5-Cyclopropyl-3-(4-fluoro-benzoyl)-thiophen-2-ylcarbamoyl]-methylsulfanyl}-acetic acid]"
5,1 to 30,"COc1ccc(C(=O)c2cc(Cl)sc2NC(=O)CSCC(=O)O)cn1 [Example 65, {[5-Chloro-3-(6-methoxy-pyridine-3-carbonyl)-thiophen-2-ylcarbamoyl]-methylsulfanyl}-acetic acid]"
6,1 to 30,"COc1ccc(C(=O)c2cc(Cl)sc2NC(=O)CSCC(=O)O)cc1 [Example 66, {[5-Chloro-3-(4-methoxy-benzoyl)-thiophen-2-ylcarbamoyl]-methylsulfanyl}-acetic acid]"
7,< 0.1,"O=C(O)CSCC(=O)Nc1sc(Cl)cc1C(=O)c1ccc(OC(F)(F)F)cc1 [Example 67, {[5-Chloro-3-(4-trifluoromethoxy-benzoyl)-thiophen-2-ylcarbamoyl]-methylsulfanyl}-acetic acid]"
8,1 to 30,"COc1ccc(C(=O)c2ccsc2NC(=O)CSCC(=O)O)cc1 [Example 68, {[3-(4-Methoxy-benzoyl)-thiophen-2-ylcarbamoyl]-methylsulfanyl}-acetic acid]"
9,1 to 30,"CCc1cc(C(=O)c2ccc(OC)cc2)c(NC(=O)CCCCC(=O)O)s1 [Example 69, 5-[5-Ethyl-3-(4-methoxy-benzoyl)-thiophen-2-ylcarbamoyl]-pentanoic acid]"
10,0.1 to 1,"CCc1cc(C(=O)c2ccc(OC)cc2)c(NC(=O)CCCSCC(=O)O)s1 [Example 71, {3-[5-Ethyl-3-(4-methoxy-benzoyl)-thiophen-2-ylcarbamoyl]-propylsulfanyl}-acetic acid]"
11,0.1 to 1,"CCc1cc(C(=O)c2ccc(OC)cc2)c(NC(=O)C(C)SCC(=O)O)s1 (stereo not shown) [Example 72, {1-[5-Ethyl-3-(4-methoxy-benzoyl)-thiophen-2-ylcarbamoyl]-ethylsulfanyl}-acetic acid]"
12,1 to 30,"CCc1cc(C(=O)c2ccc(OC)cc2)c(NC(=O)CN(C)CC(=O)O)s1 [Example 73, ({[5-Ethyl-3-(4-methoxy-benzoyl)-thiophen-2-ylcarbamoyl]-methyl}-methyl-amino)-acetic acid hydrochloride]"
13,1 to 30,"CCc1cc(C(=O)c2ccc(OC)cc2)c(NC(=O)CNCC(=O)O)s1 [Example 74, ({[5-Ethyl-3-(4-methoxy-benzoyl)-thiophen-2-ylcarbamoyl]-methyl}-amino)-acetic acid hydrochloride]"
14,< 0.1,"CCc1cc(C(=O)c2ccc(OC(F)(F)F)cc2)c(NC(=O)CNC(C)(C)C(=O)O)s1 [Example 76, 2-({[5-Ethyl-3-(4-trifluoromethoxy-benzoyl)-thiophen-2-ylcarbamoyl]-methyl}-amino)-2-methyl-propionic acid]"
15,< 0.1,"CCc1cc(C(=O)c2ccc(OC(F)(F)F)cc2)c(NC(=O)CNC(CC(C)C)C(=O)O)s1 (stereo not shown) [Example 77, 2-({[5-Ethyl-3-(4-trifluoromethoxy-benzoyl)-thiophen-2-ylcarbamoyl]-methyl}-amino)-4-methyl-pentanoic acid]"
16,1 to 30,"CCc1cc(C(=O)c2ccc(OC(F)(F)F)cc2)c(NC(=O)CN[C@@H](C(=O)O)C(C)C)s1 [Example 78, (R)-2-({[5-Ethyl-3-(4-trifluoromethoxy-benzoyl)-thiophen-2-ylcarbamoyl]-methyl}-amino)-3-methyl-butyric acid]"

row,EC50 [µM],Compound
1,< 0.1,"CCc1cc(C(=O)c2ccc(OC(F)(F)F)cc2)c(NC(=O)CN[C@H](C(=O)O)C(C)C)s1 [Example 79, (S)-2-({[5-Ethyl-3-(4-trifluoromethoxy-benzoyl)-thiophen-2-ylcarbamoyl]-methyl}-amino)-3-methyl-butyric acid]"
2,< 0.1,"CCc1cc(C(=O)c2ccc(OC(F)(F)F)cc2)c(NC(=O)CNC(CC)C(=O)O)s1 (stereo not shown) [Example 80, 2-({[5-Ethyl-3-(4-trifluoromethoxy-benzoyl)-thiophen-2-ylcarbamoyl]-methyl}-amino)-butyric acid]"
3,0.1 to 1,"CCc1cc(C(=O)c2ccc(OC(F)(F)F)cc2)c(NC(=O)CNCC(=O)O)s1 [Example 81, ({[5-Ethyl-3-(4-trifluoromethoxy-benzoyl)-thiophen-2-ylcarbamoyl]-methyl}-amino)-acetic acid]"
4,1 to 30,"CCc1cc(C(=O)c2ccc(OC(F)(F)F)cc2)c(NC(=O)CNC2(C(=O)O)CC2)s1 [Example 82, 1-({[5-Ethyl-3-(4-trifluoromethoxy-benzoyl)-thiophen-2-ylcarbamoyl]-methyl}-amino)-cyclopropanecarboxylic acid]"
5,< 0.1,"CCc1cc(C(=O)c2ccc(-c3ccc(F)cc3)cc2)c(NC(=O)CNC(C)(C)C(=O)O)s1 [Example 83, 2-({[5-Ethyl-3-(4′-fluoro-biphenyl-4-carbonyl)-thiophen-2-ylcarbamoyl]-methyl}-amino)-2-methyl-propionic acid]"
6,0.1 to 1,"CCc1cc(C(=O)c2cccc(-c3ccc(OC(F)(F)F)cc3)c2)c(NC(=O)CNC(C)(C)C(=O)O)s1 [Example 84, 2-({[5-Ethyl-3-(4′-trifluoromethoxy-biphenyl-3-carbonyl)-thiophen-2-ylcarbamoyl]-methyl}-amino)-2-methyl-propionic acid]"
7,0.1 to 1,"CCc1cc(C(=O)c2cccc(-c3ccc(F)cc3)c2)c(NC(=O)CNC(C)(C)C(=O)O)s1 [Example 85, 2-({[5-Ethyl-3-(4′-fluoro-biphenyl-3-carbonyl)-thiophen-2-ylcarbamoyl]-methyl}-amino)-2-methyl-propionic acid]"
8,0.1 to 1,"CC(C)(NCC(=O)Nc1sc(Cl)cc1C(=O)c1ccc(OC(F)(F)F)cc1)C(=O)O [Example 86, 2-({[5-Chloro-3-(4-trifluoromethoxy-benzoyl)-thiophen-2-ylcarbamoyl]-methyl}-amino)-2-methyl-propionic acid]"
9,0.1 to 1,"CCc1cc(C(=O)c2ccc(Cl)cc2)c(NC(=O)C(C)N(C)CC(=O)O)s1 (stereo not shown) [Example 87, ({1-[3-(4-Chloro-benzoyl)-5-ethyl-thiophen-2-ylcarbamoyl]-ethyl}-methyl-amino)-acetic acid]"
10,1 to 30,"CCc1cc(C(=O)c2ccc(OC)cc2)c(NC(=O)CSc2cccc(OCC(=O)O)c2)s1 [Example 88, (3-{[5-Ethyl-3-(4-methoxy-benzoyl)-thiophen-2-ylcarbamoyl]-methylsulfanyl}-phenoxy)-acetic acid]"
11,1 to 30,"CCc1cc(C(=O)c2ccc(OC)cc2)c(NC(=O)CSc2ccc(OCC(=O)O)cc2)s1 [Example 89, (4-{[5-Ethyl-3-(4-methoxy-benzoyl)-thiophen-2-ylcarbamoyl]-methylsulfanyl}-phenoxy)-acetic acid]"
12,1 to 30,"CCc1cc(C(=O)c2ccc(OC)cc2)c(NC(=O)CSc2cccc(C(=O)O)c2)s1 [Example 90, 3-{[5-Ethyl-3-(4-methoxy-benzoyl)-thiophen-2-ylcarbamoyl]-methylsulfanyl}-benzoic acid]"
13,1 to 30,"CCc1cc(C(=O)c2ccc(OC)cc2)c(NC(=O)CSc2ccc(OCC(=O)O)c(C)c2)s1 [Example 91, (4-{[5-Ethyl-3-(4-methoxy-benzoyl)-thiophen-2-ylcarbamoyl]-methylsulfanyl}-2-methyl-phenoxy)-acetic acid]"
14,0.1 to 1,"CCc1cc(C(=O)c2ccc(OC)cc2)c(NC(=O)CSc2ccc(OC(C)(C)C(=O)O)cc2)s1 [Example 92, 2-(4-{[5-Ethyl-3-(4-methoxy-benzoyl)-thiophen-2-ylcarbamoyl]-methylsulfanyl}-phenoxy)-2-methyl-propionic acid]"
15,0.1 to 1,CCc1cc(C(=O)c2ccc(OC(F)(F)F)cc2)c(NC(=O)CSc2ccc(OCC(=O)O)cc2)s1 [Example 93]
